Test results published in patent US8420012B2, “Use of monochlorourea to treat industrial waters” (Hercules Incorporated, priority 2009, dated 2013).

Tests used:
[1] = Stability in the presence of chlorine demand (0.1× nutrient broth), total chlorine by Hach DPD; format: physicochemical; details: 5 ppm chlorine
Method: This can be seen in Table 4 below. 20 mL aliquots of a 0.1× nutrient broth were used and the active species added such that the initial concentration of each was equivalent to 5 ppm chlorine as measured by the Hach. To prepare the nutrient broth Difco Nutrient Broth (8 grams) was dissolved in 1 L of deionized water, and subsequently diluted to 0.1× of the initial concentration prior to being autoclaved at 121° C. for 15 minutes. 100 mL solutions of each of the actives were made, and the concentration was measured using standard Hach test procedures on a BetzDearborn DR 2010 Spectrophotometer. At each time point a 1:10 dilution of the solution in DI water was made and placed in the spectrophotometer cell. Hach Permachem DPD Total Chlorine Reagent was added and the cell was placed into the spectrophotometer. The ppm of Cl2 was measured at 0, 1, 3, 6, 24, and 48 hours. A fresh dilution was made at each time point, if necessary, and the bottles of solution were placed in a shaking incubator at 37° C. in between runs. Dimethyl monochlorourea is notated as DMCU. Bis-hydroxymethyl chlorourea is BHMCU.

[2] = tested on: Staphylococcus warneri; assay: Log reduction in populations of Staphylococcus warneri (Example 9); format: cell-based; details: S. warneri, 1.5 ppm, average of two
Method: (§1) N-chloro-N,N′-bishydroxymethylurea can be synthesized in the same manner as N-chloro-N,N′-dimethylurea. The bishydroxyurea (1.0 g, 8.33 mmol) was added to methanol (60 mL) in a 250 mL round bottom flask equipped with a magnetic stir bar without cooling. Another aliquot of methanol (20 mL) was added to a small vial. T-butyl hypochlorite (0.75 mL, 6.66 mmol) was diluted in the vial with methanol, and this solution was subsequently added to the urea solution over a period of less than five minutes. The combined solution was stirred for up to another two hours. The solvent was removed in vacuo, resulting in a colorless and transparent oil that solidified upon prolonged standing. The solid was characterized by ^1H NMR which indicated it was 20-30% N-chloro-N,N′-bishydroxymethylurea.

[3] = tested on: Pseudomonas aeruginosa; assay: Log reduction in populations of Pseudomonas aeruginosa (Example 9); format: cell-based; details: P. aeruginosa, 0.3 ppm, average of two
Method: as §1

[4] = Stability in the presence of chlorine demand (0.1× nutrient broth), total chlorine by Hach DPD; format: physicochemical; details: 72 h, 5 ppm chlorine
[5] = tested on: P. aeruginosa; assay: Viability of P. aeruginosa inoculated in paper mill process water, plated after 60 minutes; format: cell-based, Pseudomonas aeruginosa; details: papermill process water, average of three
Method: Paper mill process water samples were collected from a paper mill producing super calendered paper Samples were inoculated with P. aeruginosa, and then dosed with monochlorourea and sodium hypochlorite and plated after 60 minutes.

[6] = tested on: Pseudomonas aeruginosa; assay: Viable cell counts of P. aeruginosa in PBS after 60 minutes exposure to biocide (Example 6); format: cell-based; details: average of three
Method: The efficacy of monochlorourea as a biocide, as synthesized in Example 1, was tested against the bacterium Pseudomonas aeruginosa. The Hach DPD chlorine test (Hach Company, Loveland, Colo.) was used to measure the total available chlorine concentrations of each biocide tested. Concentrations are reported in units of milligrams per liter as Cl2. P. aeruginosa was grown overnight in Trypticase Soy Broth at 37° C. The culture was split into aliquots of equal volume, suspended in physiologically buffered saline (PBS). In this example, the cultures were exposed to […], 5.0 mg/L, 10.0 mg/L, and 15.0 mg/L of biocide for 60 minutes. The cultures were then evaluated by measuring viable cell counts after exposure to the biocides.

[7] = Free vs. total chlorine (Hach DPD) of 1000 ppm solutions in synthetic hard water; format: physicochemical; details: synthetic hard water 250 ppm hardness, 35° C.
Method: Differences exist between monochlorourea and sodium hypochlorite, namely, sodium hypochlorite is a free chlorine generating biocide while monochlorourea is not. Free and total chlorine are measured using the DPD reagents from the Hach Company. The test is a colorimetric test in which more intense color development results as more oxidizing chlorine is present in the sample. The rate at which the dye reacts with the oxidizing chemical depends on whether the chlorine is free or bound. Total chlorine includes both free and bound chlorine.
The rate at which the dye reacts with total chlorine is accelerated by the addition of iodide to the test. This differentiates the free and total chlorine. The iodide reacts rapidly with bound oxidizing chlorine to form iodine and chloride. The iodine, a free oxidizing halogen, reacts very rapidly with the DPD dye.
One thousand ppm (as total Cl2) solutions of monochlorourea and sodium hypochlorite were prepared in synthetic hard water with 250 ppm hardness. Total and free chlorine readings were taken at 0 minutes, 30 minutes, 2 hours, and 4 hours. Untreated hard water solutions were used as blanks. The samples were stored at 35° C.+/−2° C. with mild stirring. pH values are provided as a reference points for the conditions of the chlorine species at the various test times.
Table 3 compares duplicate samples of sodium hypochlorite and monochlorourea. Significant differences exist between the free and total chlorine values of these chemicals. The release of free chlorine from monochlorourea is an energetically unfavorable reaction. Monochlorourea is a combined chlorine species that functions to kill bacteria not as a donor of free chlorine, but as a biocide itself.
Made-up 1 Liter sample of synthetic hard water with 250 ppm hardness.
Took 100 mL aliquots and set up duplicate samples of biocides at least 1,000 ppm based on total Chlorine readings.
Monitored pH, free chlorine and total chlorines at timed intervals of—0 min, 30 min, 2 hours, and 4 hours,
Monitored un-treated (blank) hard water at time 0 to serve as baseline.
Between sampling stored all samples in 35° C.+/−2° C. Heater/shaker with mild stirring.

[8] = Effect of pH on stability of monochlorourea in D2O by 13C NMR; format: physicochemical
Text: The effect of pH on the stability of monochlorourea was significant. Carbon 13 labeled urea was used to examine the stability of the products overnight in D2O. […] However, completely acidifying all the solutions to a pH of 2.5 did have a significant effect on both the yield and the stability of the product.

[9] = Time = 2 hours, listed as MCU-1
[10] = Time = 2 hours, listed as MCU-2
[11] = Time = 4 hours, listed as MCU-1
[12] = Time = 4 hours, listed as MCU-2

## O=C(NCO)N(Cl)CO [BHMCU, N-chloro-N,N′-bishydroxymethylurea]
[1]; 0 h
  Stability: total chlorine remaining relative to initial: 100%
[1]; 1 h
  Stability: total chlorine remaining relative to initial: 70%
[1]; 3 h
  Stability: total chlorine remaining relative to initial: 49%
[1]; 6 h
  Stability: total chlorine remaining relative to initial: 38%
[2]; 1 hr exposure
  Log Reduction: 6.37
[2]; 2 hr exposure
  Log Reduction: 6.52
[3]; 1 hr exposure
  Log Reduction: 3.63
[3]; 2 hr exposure
  Log Reduction: 6.98
[4]
  Stability: total chlorine remaining relative to initial: 3%

## NC(=O)NCl [MCU, N-chlorourea]
[5]; 1.0 mg/l
  log10 of viable cfu/mL: 9.9 log10 cfu/mL
[5]; 3.0 mg/l
  log10 of viable cfu/mL: 4.3 log10 cfu/mL
[5]; 5.0 mg/l
  log10 of viable cfu/mL: 3.2 log10 cfu/mL
[5]; 10.0 mg/l
  log10 of viable cfu/mL: 3.1 log10 cfu/mL
[6]; 5.0 mg/L as Cl2, 60 minutes
  log10 of viable cfu/mL remaining after exposure: 4.0 log10 cfu/mL
[6]; 10.0 mg/L as Cl2, 60 minutes
  log10 of viable cfu/mL remaining after exposure: 2.7 log10 cfu/mL
[6]; 15.0 mg/L as Cl2, 60 minutes
  log10 of viable cfu/mL remaining after exposure: 2.3 log10 cfu/mL
[7]; Time = 0
  Free Cl: 0 ppm
[7]; Time = 0, listed as MCU-1
  Tot Cl: 1620 ppm
[7]; Time = 0, listed as MCU-2
  Tot Cl: 1190 ppm
[7]; Time = 30 min, listed as MCU-1
  Free Cl: 10 ppm
  Tot Cl: 1500 ppm
[7]; Time = 30 min, listed as MCU-2
  Free Cl: 20 ppm
  Tot Cl: 1210 ppm
[7]; [9]
  Free Cl: 10 ppm
  Tot Cl: 1490 ppm
[7]; [10]
  Free Cl: 30 ppm
  Tot Cl: 1120 ppm
[7]; [11]
  Free Cl: 10 ppm
  Tot Cl: 1230 ppm
[7]; [12]
  Free Cl: 20 ppm
  Tot Cl: 1000 ppm
[8]; acidic conditions (pH of 2.5), overnight
  Stability by 13C NMR: no indication by ^13C NMR of any decomposition
[8]; basic conditions, 12 hours
  Stability by 13C NMR: no peak in the ^13C NMR from chlorourea could be detected
